Laboratory results: patent publication US20100135903A1, “USE OF A DNA DAMAGING AGENT AND A LIGAND FOR THE TREATMENT OF CANCER” (MEDVET SCIENCE PTY. LTD., priority 2006, published 2010)
Read-outs that look alike come from different tables or passages of the source.

Assays:
HeLa = assay: Binding of La-specific mAb to apoptotic human cancer cell lines (HeLa); details: 0.5 μM staurosporine, 20 μg/mL etoposide or 0.1 μg/mL vincristine, 3B9-FITC staining
U2OS = assay: Binding of La-specific mAb to apoptotic human cancer cell lines (U2OS); type: cell-based; details: 0.5 μM staurosporine, 20 μg/mL etoposide, 3B9-FITC staining
Description: Direct immunofluorescence staining was performed using 1-2×10^5 cells at 10^6 cells/mL for 30 min at room temperature in PBS containing 0.1% BSA and 5 μg/mL of FITC-conjugated mAb. […] Cell viability was assessed by the exclusion of PI detected using the FL-2 (585-nm filter) or the exclusion of 7-AAD detected using the FL-3 (>650 nm filter).

Jurkat = assay: Binding of La-specific mAb to apoptotic human cancer cell lines (Jurkat); details: 0.5 μM staurosporine, 20 μg/mL etoposide or 0.1 μg/mL vincristine, 3B9-FITC staining
Raji = assay: Binding of La-specific mAb to apoptotic human cancer cell lines (Raji); details: 2 μM staurosporine, 20 μg/mL etoposide or 0.1 μg/mL vincristine, 3B9-FITC staining
apoptotic Jurkat cells = assay: MDC inhibition of protein crosslinking and 3B9 binding in cisplatin-treated Jurkat cells; type: cell-based, human; details: for IC50: Homo sapiens, read-out: concentration of MDC required to inhibit half of the binding of 3B9
Description: FIG. 18 depicts that La antigen is crosslinked during apoptosis. (A) Jurkat cells incubated in 20 μg/mL cisplatin were removed at specified time points and incubated for 10 min. in 1% Triton X-100 solution before 3B9 binding analysis. Data are presented as density plots of staining with 3B9 vs. 7-AAD. (B) Immunoblots of cell lysates of control and cisplatin-treated Jurkat cells were probed with 3B9 for expression of La (top panels) or actin as a loading control (bottom panels) at specified times. (C) Jurkat cells incubated in the absence or presence of increasing concentrations of cisplatin were labeled with cadaverine-biotin added at 100 μM for 48 h. Cells were stained with strepatavidin-Alexa488 and analyzed by flow cytomtery. Data shown are MFI±SEM (n=3). (D) Jurkat cells incubated in the absence or presence of 20 μg/mL cisplatin were incubated with increasing concentrations of MDC. Cells were analyzed at specified times (24 □, 48 ? and 72 h ▪) for sulforhodamine 101 staining. Inset summarizes the dependence of the protein cross-linking ratio on MDC concentration at 48 h (—) and 72 h ( . . . ) after cisplatin treatment of Jurkat cells. (E) Jurkat cells incubated with cisplatin in the absence or presence of increasing concentrations of MDC were stained with 3B9. 3B9-specific binding is presented as Net MFI±SEM (n=3). Inset summarizes the dependence of 3B9-specific binding on MDC concentration at 24 h (—), 48 h (— —) and 72 h ( . . . ) after cisplatin treatment of Jurkat cells. Data are representative of three identical and independent assays, which produced similar results.
Transglutaminase 2 (TG2)-mediated protein-protein crosslinking in apoptotic cells was investigated using a modification of a previously described method. Briefly, cells were resuspended at 1×10^6 cells/mL in PBS containing 1% Triton X-100, 0.2 μg/mL sulforhodamine 101 and 0.1 μM SytoxGreen. Samples were vortexed and incubated for 5 min. before analysis by flow cytometry where fluorescence from Sytox Green and sulforhodamine were detected using FL-1 and FL-3, respectively. The degree of crosslinking in apoptotic cells was calculated as the ratio of the MFI of sulforhodamine staining in apoptotic cells to the MFI in control cells (protein crosslinking ratio). In other experiments, cells were incubated with PBS or 1% Triton X-100 in PBS for 10 min. at RT with intermittent vortexing.
To test inhibition of protein crosslinking, cultured cells were incubated with increasing concentrations of the competitive TG2inhibitor, monodansylcadaverine (MDC). MDC was dissolved in DMSO at 25 mM and then diluted in culture media before it was added to cell cultures at the specified concentrations for the specified duration. […]

PANC-1 cells [1] = assay: MTS proliferation assay of PANC-1 cells; type: cell-based, human
Description: FIG. 50 depicts that gemcitabine and TSA synergise to reduce proliferation rates among PANC-1 cells in vitro. PANC-1 cells (2×10^4 cells) were seeded in flat bottom 96-well plates overnight using phenol-free RPMI-1640 medium containing 10% FCS (medium). A serial dilution of 2×10^4 cells was used to construct a standard curve for the MTS assay. Triplicate wells were incubated with increasing concentrations of TSA (nM) with or without the addition of increasing concentrations of gemcitabine. Three identical plates were incubated for 24, 48 or 72 h then medium was decanted and fresh medium (100 μL) containing 20 μL MTS/PMS substrate was added to all wells. Assays were performed according to the manufacturer's instructions. The change in the absorbance reading over time was calculated for each condition in units of change per 12 h (upper panel), which was converted to units of cell number change per 12 h (lower panel) using a standard curve of the absorbance reading […] (r^2=0.99).

PANC-1 cells [2] = assay: Cell death and 3B9 binding of PANC-1 cells treated with gemcitabine and TSA in vitro; type: cell-based, human; details: compared with control or single agent
Description: FIG. 15 depicts that 3B9 binding to dead PANC-1 cells is augmented after combination treatment with gemcitabine and TSA produced additive cytotoxicity and DNA-damaging effects. PANC-1 cells were incubated with increasing concentrations of gemcitabine in the absence (clear columns) or presence of 100 ng/mL (hatched columns) or 200 ng/mL (filled columns) of TSA. Analysis was done for viability using 7-AAD (A), 3B9-specific binding (B) and DNA damage using γH2AX staining (C). Data are presented as mean±SEM from three independent experiments. Photomicrographs show PANC-1 cells treated with gemcitabine and TSA (+) or not (−), which were stained with γH2AX-specific mAb and 7-AAD (D).
Apoptosis or cell death was induced by adding cytotoxic drugs to culture media at the specified concentrations. […] Control (untreated) cells had ≧90% viability determined by PI or trypan blue staining (data not shown). […]
Indirect immunofluorescence staining was performed using purified mouse antibodies at 5 μg/mL for 30 min. at room temperature (RT) in PBS followed by Alexa488-conjugated anti-mouse IgG at 2 μg/mL for 30 min. at RT in PBS. […] Cells were washed then incubated (30 min. at RT) with 2 μg/mL of FITC-conjugated anti-rabbit IgG antibody, which was detected using the FL-1 channel. […] Flow cytometry data were analyzed using WinMDI v2.8 (Scripps Research Institute, La Jolla, Calif.). […]

| SMILES | percentage of PI+ and 3B9+ events after subtraction of control (PI+ and Sal5+) events (HeLa) [%] | percentage of PI+ and 3B9+ events after subtraction of control (PI+ and Sal5+) events (U2OS) [%] | percentage of PI+ and 3B9+ events after subtraction of control (PI+ and Sal5+) events (Jurkat) [%] | percentage of PI+ and 3B9+ events after subtraction of control (PI+ and Sal5+) events (Raji) [%] | other results |
| --- | --- | --- | --- | --- | --- |
| COc1cc([C@@H]2c3cc4c(cc3[C@@H](O[C@@H]3O[C@@H]5CO[C@@H](C)O[C@H]5[C@H](O)[C@H]3O)[C@H]3COC(=O)[C@H]23)OCO4)cc(OC)c1O [Etoposide, etoposide] | 36.1 | 28.0 | 22.6 | 21.3 |  |
| CN(C)c1cccc2c(S(=O)(=O)NCCCCCN)cccc12 [MDC, monodansylcadaverine] |  |  |  |  | IC50 (apoptotic Jurkat cells; 24 h after cisplatin treatment of Jurkat cells): 260 ± 1 µM; IC50 (apoptotic Jurkat cells; 48 h after cisplatin treatment of Jurkat cells): 110 ± 1 µM; IC50 (apoptotic Jurkat cells; 72 h after cisplatin treatment of Jurkat cells): 150 ± 1 µM; effect on protein crosslinking (sulforhodamine crosslinking ratio) (apoptotic Jurkat cells; cisplatin-treated Jurkat cells): dose-dependent inhibitory effect |
| CN[C@@H]1C[C@H]2O[C@@](C)([C@@H]1OC)n1c3ccccc3c3c4c(c5c6ccccc6n2c5c31)C(=O)NC4 [Staurosporine, staurosporine] | 62.5 | 65.9 | 56.1 | 28.8 |  |
| CC(/C=C/C(=O)NO)=C\[C@@H](C)C(=O)c1ccc(N(C)C)cc1 [TSA, trichostatin A] |  |  |  |  | proliferation of PANC-1 cells (PANC-1 cells [1]; TSA alone): inhibited proliferation; 3B9-specific binding to PANC-1 cells (PANC-1 cells [2]): did not alter 3B9 binding |
| CC[C@]1(O)C[C@H]2CN(CCc3c([nH]c4ccccc34)[C@@](C(=O)OC)(c3cc4c(cc3OC)N(C=O)[C@H]3[C@@](O)(C(=O)OC)[C@H](OC(C)=O)[C@]5(CC)C=CCN6CC[C@]43[C@@H]65)C2)C1 [Vincristine, vincristine] | 18.6 |  | 12.1 | 9.8 |  |
| Nc1ccn([C@@H]2O[C@H](CO)[C@@H](O)C2(F)F)c(=O)n1 [gemcitabine] |  |  |  |  | proliferation of PANC-1 cells (PANC-1 cells [1]; gemcitabine added at a TSA concentration of 50 nM): completely inhibited; numbers of PANC-1 cells in the cultures (PANC-1 cells [1]; gemcitabine added at a TSA concentration of 200 nM): significantly reduced the numbers |
